{
  "source": "patent US20060106099A1",
  "about": "“Novel inhibitors of ubiquitin isopeptidases” (priority 2002, published 2006)",
  "key": {"ubiquitin isopeptidases [1]": {"system": "ubiquitin isopeptidases", "assay": "Ubiquitin isopeptidase activity, z-LRGG-AMC substrate, lysates of treated RKO and HCT 116 cells", "format": "cell-based, human", "conditions": "cells treated 6, 20 or 60 μM, 12 h", "protocol": "RKO (upper) and HCT 116 ^+/+ cells (lower) were treated with DMSO vehicle, 6, 20, or 60 μM of Δ12-PGJ2, DBA, NSC-302979, or curcumin, 60 μM PGB1, 60 μM NSC-156236, or 60 μM DPTP for 12 h at 37° C. Cell lysates (0.5 mg/mL) from each treatment were incubated with the isopeptidase substrate, z-LRGG-AMC, for 3 h, 37° C. The amount of AMC cleaved by isopeptidase was determined fluorometrically, as described in Materials and Methods.\nThe second assay used a fluorescent tetrapeptide, z-LRGG-AMC, as a substrate that mimics the carboxy-terminus of ubiquitin. Isopeptidase activity hydrolyzes the bond between the c-terminal glycine and the fluorophore. This tetrapeptide also undergoes slow proteolysis by the catalytic subunit of the proteasome. To minimize this background rate of proteolysis cell lysates were incubated with 30 μM MG115 for 30 minutes at 4° C., prior to substrate incubation (>90% proteasome inhibition). Cells were teeated as above, lysed in 250 μL of lysis buffer per sample, and adjusted protein concentration to 0.5 mg/mL prior to incubation with MG115. Next, z-LRGG-AMC substrate was added and fluorescence was quantified of the AMC moiety cleaved by isopeptidase action."}, "ubiquitin isopeptidases [2]": {"system": "ubiquitin isopeptidases", "assay": "Ubiquitin isopeptidase activity, Ub-PEST substrate, lysates of treated RKO and HCT 116 cells", "format": "cell-based, human", "conditions": "cells treated 6, 20 or 60 μM, 12 h", "protocol": "A) Inhibition of isopeptidase proteolysis of Ub-PEST substrate. RKO and HCT 116 cells were treated with DMSO vehicle, 6, 20, or 60 μM of Δ12-PGJ2, DBA, NSC-302979, or curcumin, 60 μM PGB1, 60 μM NSC-156236, or 60 μM DPTP for 12 h, 37° C. Cell lysates from each treatment were incubated with Ub-PEST, as described in materials and methods. Samples were fractionated by SDS-PAGE and proteins detected with ubiquitin epitopes immunochemically (HCT 116 ^+/+ western blot shown as example of raw data). […] B) Inhibition of isopeptidase activity by test panel compounds. Isopeptidase activity was determined by measuring via densitometry, the amount of Ub generated by isopeptidase cleavage of Ub-PEST. Bar graph patterns are DMSO vehicle (black), Δ12-PGJ2 (hatched), DBA (horizontal lines), NSC-302979 (white), PGB1 (diagonally downward right lines), and NSC-156236 (diagonally downward left lines). The amount of Ub generated in the vehicle treated sample (panel A, lane 2) is arbitrarily designated 100%.\nCellular isopeptidase enzymatic activity was measured with two assays that used different substrates. In one assay ubiquitin-PEST (Ub-PEST) was used, a full-length ubiquitin molecule with an 18 amino acid c-terminal peptide extension (total mass=10.5 kDa). Ubiquitin isopeptidases specifically cleave the 18 amino acid peptide extension, releasing full-length ubiquitin (8.5 kDa).\nBriefly, 6×10^5 cells were incubated with 0-60 μM of test compounds for 12 hrs. Cells were lysed in 50 μL of 25 mM HEPES, 5 mM EDTA, 0.1% CHAPS, 5 mM ATP, pH 7.5. The protein concentration of each sample was adjusted to 0.3 mg/mL and incubated with 50 μg/mL Ub-PEST for 45 minutes at 25° C. Under these conditions, Ub-PEST hydrolysis occurs at a linear rate. 20 μL samples were mixed with 20 μL 2× Laemmli buffer, boiled briefly, and fractionated by SDSPAGE. Isopeptidase activity was monitored by determining the amount of product (8.5 kDa ubiquitin) formation."}, "RKO cells [3]": {"system": "RKO cells", "procedure": "(§1) Cell viability was measured with MTT reagent as described in materials and methods.\n(§2) Cell viability was detected by the MTT assay. Briefly, 1×10^5 cells were incubated per well of a sterile, 96-well assay plate with 0-60 μM of test compounds for 48 hours. MTT reagent was added to each well, final concentration of 0.5 mg/mL, and incubated for an additional 3 hours. The media was aspirated and remaining MTT reagent from each well and added 100 μL of HCl:isopropanol (1:24). The absorbance of each sample was measured at 405 nm."}, "RKO cells [4]": {"system": "RKO cells", "assay": "MTT cell viability assay, RKO cells", "conditions": "48 h, MTT, isogenic pair", "procedure": "as §1, §2"}, "p53": {"system": "p53", "assay": "p53 accumulation, ratio RKO-E6 cells/RKO cells (immunoblot, densitometry)", "format": "cell-based, human", "conditions": "6 h; etoposide 50 μM, MG115, NSC-302979, DBA 20 μM, others 60 μM", "procedure,_shortened": "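RKO-E6 cells exposed at 37° C for 6, 12 or 24 h to compound concentrations giving 80% cell death at 48 h; for p53, RKO and RKO-E6 cells treated 6 h. Lysates (12.5 μg protein) immunoblotted for ubiquitin or p53 with ECL detection; p53 quantified by densitometry as RKO-E6/RKO ratio.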"}, "isopeptidase": {"system": "isopeptidase", "conditions": "cited from earlier work"}, "HCT 116 +/+ cells [5]": {"system": "HCT 116 +/+ cells", "assay": "MTT cell viability assay, HCT 116 p53 +/+ cells", "conditions": "48 h, MTT, isogenic pair", "procedure": "as §1, §2"}, "[6]": {"system": "polyubiquitin conjugates in RKO-E6 cells", "assay": "Accumulation of polyubiquitin in RKO-E6 cells (immunoblot)", "format": "cell-based, human", "conditions": "EC80 or 60 μM, 6-24 h", "protocol": "A) Accumulation of polyubiquitin. RKO-E6 cells were treated with DMSO vehicle for 24 h, 37° C., or with the concentrations of test compounds that gave 80% cell death (as determined by cell viability assay at 48 h) for 6, 12, or 24 h, 37° C. […] Schematic depicting p53 degradation via the proteasome pathway in RKO cells versus RKO-E6 cells. The activity of the HPV E6 oncoprotein hastens p53 degradation in RKO-E6 cells. ii. RKO and RKO-E6 cells were treated with vehicle, etoposide (50 μM), MG115 (20 μM), Δ12-PGJ2 (60 μM), NSC-302979 (20 μM, DBA (20 μM), curcumin (60 μM), PGB1 (60 μM), NSC-156236, (60 XM)or DPTP 60 μM for 6 h, 37° C. Lysates were fractionated by SDS-PAGE and their p53 content determined immunochemically. iii. p53 levels were measured by densitometry and the ratio of p53 protein in RKO-E6 cells/RKO cells calculated.\nThe medium was removed and cells lysed in 50 mM Tris, pH 7.4, 100 mM NaCl, 2 mM EDTA with 0.1% SDS, 0.1% deoxycholate, 1× complete protease inhibitor mixture. Protein concentration was measured by the Bradford method. Equal portions of the total cell lysate were fractionated from each sample (12.5 μg of protein) by SDS-PAGE. Proteins were transferred to poly(vinylidene difluoride) blocked with 5% (w/v) nonfat dry milk in Trisbuffered saline [20 mM Tris-HCl, pH 7.5, 100 mM sodium chloride, 0.1% (v/v) Tween 20]. Proteins were detected immunochemically by using primary antibodies directed against p53 (1:4000) or ubiquitin (1:1000), followed by horseradish peroxidase-conjugated secondary antibodies (1:4000). Antigen-antibody complexes were detected with enhanced chemiluminescence reagents. Gels were scanned and quantified intensities using Kodak 1D Image Analysis Software."}, "HCT 116 +/+ cells [7]": {"system": "HCT 116 +/+ cells", "procedure": "as §1, §2"}},
  "data": [
    {"smiles": "CCCCC[C@H](O)/C=C/C1=C(CCCCCCC(=O)O)C(=O)CC1", "note": "[PGB1]", "values": [
      {"measurement": "inhibition of z-LRGG-AMC hydrolysis by ubiquitin isopeptidases", "setting": "ubiquitin isopeptidases [1]", "value": "did not"},
      {"measurement": "inhibition of isopeptidase cleavage of Ub-PEST", "setting": "ubiquitin isopeptidases [2]", "value": "did not inhibit isopeptidase activity"},
      {"measurement": "EC50", "setting": "RKO cells [3]", "value": "> 60", "unit": "µM"},
      {"measurement": "cell death in RKO compared with RKO-E6 cells", "setting": "RKO cells [4]", "value": "did not cause significant cell death"},
      {"measurement": "ratio of p53 protein [RKO-E6 cells/RKO cells]", "setting": "p53", "value": "significantly less than unity"},
      {"measurement": "isopeptidase inhibition relative to Δ12-PGJ2", "setting": "isopeptidase", "value": "inactive"},
      {"measurement": "EC50", "setting": "HCT 116 −/− cells", "value": "> 60", "unit": "µM"},
      {"measurement": "EC50", "setting": "RKO-E6 cells", "value": "> 60", "unit": "µM"},
      {"measurement": "cell death in HCT 116 +/+ compared with HCT 116 −/− cells", "setting": "HCT 116 +/+ cells [5]", "value": "did not cause significant cell death"},
      {"measurement": "cellular accumulation of polyubiquitin conjugates", "setting": "[6]", "value": "did not cause appreciable cellular accumulation of ubiquitin conjugates"},
      {"measurement": "EC50", "setting": "HCT 116 +/+ cells [7]", "value": "> 60", "unit": "µM"}
    ]}
  ]
}
